Measured values: the supplement of paper PMC4976141

System: PC9
Test: cell count fold change with erlotinib, miRNA mimic vs non-targeting control (log2 ratio); higher = more drug-tolerant survivors than NTC
Conditions: erlotinib 1 µM; 72 h drug + 72 h drug-free recovery; perturbation: miRNA mimic

Sequence: AAAAACUGUAAUUACUUUU
- cell count fold change with erlotinib: 0.031

Sequence: AAAAGCUGGGUUGAGAGGGCGA
- cell count fold change with erlotinib: -2.14

Sequence: AAACCUGUGUUGUUCAAGAGUC
- cell count fold change with erlotinib: -0.0774

Sequence: AAAGACAUAGGAUAGAGUCACCUC
- cell count fold change with erlotinib: -0.142

Sequence: AAAGCGCUUCCCUUCAGAGUG
- cell count fold change with erlotinib: -1.78

Sequence: AAAGUAGCUGUACCAUUUGC
- cell count fold change with erlotinib: -2.51

Sequence: AAAGUGCAUCCUUUUAGAGGUU
- cell count fold change with erlotinib: -0.881

Sequence: AAAGUGCUGCGACAUUUGAGCGU
- cell count fold change with erlotinib: 0.0776

Sequence: AAAGUGCUUCCUUUUAGAGGG
- cell count fold change with erlotinib: -0.225

Sequence: AAAGUGCUUCCUUUUAGAGGGU
- cell count fold change with erlotinib: 0.14

Sequence: AAAGUGCUUCUCUUUGGUGGGU
- cell count fold change with erlotinib: 0.279

Sequence: AACAUAGAGGAAAUUCCACGU
- cell count fold change with erlotinib: -1.33

Sequence: AACAUUCAACGCUGUCGGUGAGU
- cell count fold change with erlotinib: -3.99

Sequence: AACCCGUAGAUCCGAUCUUGUG
- cell count fold change with erlotinib: -0.33

Sequence: AACUGGCCCUCAAAGUCCCGCU
- cell count fold change with erlotinib: -0.145

Sequence: AAGAUGUGGAAAAAUUGGAAUC
- cell count fold change with erlotinib: -0.304

Sequence: AAGCAGCUGCCUCUGAGGC
- cell count fold change with erlotinib: 0.0583

Sequence: AAGCAUUCUUUCAUUGGUUGG
- cell count fold change with erlotinib: -1.49

Sequence: AAGCCCUUACCCCAAAAAGCAU
- cell count fold change with erlotinib: -1.75

Sequence: AAGGAGCUCACAGUCUAUUGAG
- cell count fold change with erlotinib: -1.13

Sequence: AAGGAGCUUACAAUCUAGCUGGG
- cell count fold change with erlotinib: -0.343

Sequence: AAGUGAUCUAAAGGCCUACAU
- cell count fold change with erlotinib: -3.48

Sequence: AAGUGUGCAGGGCACUGGU
- cell count fold change with erlotinib: -3.4

Sequence: AAUCAUACAGGGACAUCCAGUU
- cell count fold change with erlotinib: -1.33

Sequence: ACAAAGUGCUUCCCUUUAGAGUGU
- cell count fold change with erlotinib: -0.659

Sequence: ACCCUAUCAAUAUUGUCUCUGC
- cell count fold change with erlotinib: -3.19

Sequence: ACGGAUGUUUGAGCAUGUGCUA
- cell count fold change with erlotinib: -2.45

Sequence: ACGGGUUAGGCUCUUGGGAGCU
- cell count fold change with erlotinib: -2.04

Sequence: ACUGCAUUAUGAGCACUUAAAG
- cell count fold change with erlotinib: -0.728

Sequence: ACUGUAGUAUGGGCACUUCCAG
- cell count fold change with erlotinib: -1.17

Sequence: ACUUGUAUGCUAGCUCAGGUAG
- cell count fold change with erlotinib: -0.236

Sequence: AGACCAUGGGUUCUCAUUGU
- cell count fold change with erlotinib: -1.65

Sequence: AGACCUGGCCCAGACCUCAGC
- cell count fold change with erlotinib: 0.672

Sequence: AGACUUCCCAUUUGAAGGUGGC
- cell count fold change with erlotinib: -0.166

Sequence: AGAGCUUAGCUGAUUGGUGAAC
- cell count fold change with erlotinib: -3.36

Sequence: AGAUCAGAAGGUGAUUGUGGCU
- cell count fold change with erlotinib: -0.11

Sequence: AGCAGCAUUGUACAGGGCUAUCA
- cell count fold change with erlotinib: -0.458

Sequence: AGCAGCAUUGUACAGGGCUAUGA
- cell count fold change with erlotinib: -0.577

Sequence: AGCCUGGAAGCUGGAGCCUGCAGU
- cell count fold change with erlotinib: -0.167

Sequence: AGCUGGUGUUGUGAAUCAGGCCG
- cell count fold change with erlotinib: -0.131

Sequence: AGGACCUGCGGGACAAGAUUCUU
- cell count fold change with erlotinib: 0.369

Sequence: AGGAUGAGCAAAGAAAGUAGAUU
- cell count fold change with erlotinib: -2.25

Sequence: AGGCAGCGGGGUGUAGUGGAUA
- cell count fold change with erlotinib: 1.05

Sequence: AGGCAGUGUAGUUAGCUGAUUGC
- cell count fold change with erlotinib: 1.35

Sequence: AGGCGGAGACUUGGGCAAUUG
- cell count fold change with erlotinib: -3.29

Sequence: AGGGCUUAGCUGCUUGUGAGCA
- cell count fold change with erlotinib: -3.74

Sequence: AGGGGUGCUAUCUGUGAUUGA
- cell count fold change with erlotinib: 0.941

Sequence: AGGGGUGGUGUUGGGACAGCUCCGU
- cell count fold change with erlotinib: -0.171

Sequence: AGGGUGUUUCUCUCAUCUCU
- cell count fold change with erlotinib: -1.29

Sequence: AGGUUACCCGAGCAACUUUGCAU
- cell count fold change with erlotinib: -0.13

Sequence: AGGUUGGGAUCGGUUGCAAUGCU
- cell count fold change with erlotinib: -0.41

Sequence: AGGUUGUCCGUGGUGAGUUCGCA
- cell count fold change with erlotinib: -0.399

Sequence: AGUCAUUGGAGGGUUUGAGCAG
- cell count fold change with erlotinib: -3.38

Sequence: AGUGAAUGAUGGGUUCUGACC
- cell count fold change with erlotinib: -3.04

Sequence: AGUGCCUGAGGGAGUAAGAGCCC
- cell count fold change with erlotinib: -2.56

Sequence: AGUUUUGCAGGUUUGCAUCCAGC
- cell count fold change with erlotinib: -0.535

Sequence: AGUUUUGCAGGUUUGCAUUUCA
- cell count fold change with erlotinib: -0.889

Sequence: AGUUUUGCAUAGUUGCACUACA
- cell count fold change with erlotinib: -2.57

Sequence: AUCACAUUGCCAGGGAUUUCC
- cell count fold change with erlotinib: -1.61

Sequence: AUCAUAGAGGAAAAUCCACGU
- cell count fold change with erlotinib: -3.73

Sequence: AUCAUGAUGGGCUCCUCGGUGU
- cell count fold change with erlotinib: -3.05

Sequence: AUGCUGACAUAUUUACUAGAGG
- cell count fold change with erlotinib: -1.82

Sequence: AUGGUUCCGUCAAGCACCAUGG
- cell count fold change with erlotinib: -2.16

Sequence: AUGUAGGGCUAAAAGCCAUGGG
- cell count fold change with erlotinib: -1.51

Sequence: AUGUAUGUGUGCAUGUGCAUG
- cell count fold change with erlotinib: 0.321

Sequence: AUUCCUAGAAAUUGUUCAUA
- cell count fold change with erlotinib: 0.458

Sequence: AUUCUGCAUUUUUAGCAAGUUC
- cell count fold change with erlotinib: -0.25

Sequence: CAAAGAGGAAGGUCCCAUUAC
- cell count fold change with erlotinib: -0.517

Sequence: CAAAGCGCUCCCCUUUAGAGGU
- cell count fold change with erlotinib: -0.185

Sequence: CAAAGCGCUUCCCUUUGGAGC
- cell count fold change with erlotinib: -0.111

Sequence: CAACCUGGAGGACUCCAUGCUG
- cell count fold change with erlotinib: -0.199

Sequence: CAACGGAAUCCCAAAAGCAGCUG
- cell count fold change with erlotinib: -1.27

Sequence: CAAGCUCGUGUCUGUGGGUCCG
- cell count fold change with erlotinib: -1.13

Sequence: CACACACUGCAAUUACUUUUGC
- cell count fold change with erlotinib: -3.13

Sequence: CAGCAGCAAUUCAUGUUUUGAA
- cell count fold change with erlotinib: -3.25

Sequence: CAGGGAGGUGAAUGUGAU
- cell count fold change with erlotinib: 1.99

Sequence: CAGUGCAAUAGUAUUGUCAAAGC
- cell count fold change with erlotinib: -2.72

Sequence: CAGUGCAAUGAUAUUGUCAAAGC
- cell count fold change with erlotinib: -2.68

Sequence: CAGUGCAAUGAUGAAAGGGCAU
- cell count fold change with erlotinib: -2.17

Sequence: CAGUGCAAUGUUAAAAGGGCAU
- cell count fold change with erlotinib: -3.02

Sequence: CAGUUAUCACAGUGCUGAUGCU
- cell count fold change with erlotinib: -1.92

Sequence: CAUCUUACCGGACAGUGCUGGA
- cell count fold change with erlotinib: -0.519

Sequence: CAUCUUACUGGGCAGCAUUGGA
- cell count fold change with erlotinib: -2.32

Sequence: CAUCUUCCAGUACAGUGUUGGA
- cell count fold change with erlotinib: 0.0817

Sequence: CCAGUAUUAACUGUGCUGCUGA
- cell count fold change with erlotinib: -1.92

Sequence: CCCCCACAACCGCGCUUGACUAGCU
- cell count fold change with erlotinib: -0.523

Sequence: CCUCUGAAAUUCAGUUCUUCAG
- cell count fold change with erlotinib: -0.736

Sequence: CCUCUGGGCCCUUCCUCCAG
- cell count fold change with erlotinib: 0.0835

Sequence: CGAAAACAGCAAUUACCUUUGC
- cell count fold change with erlotinib: -2.67

Sequence: CGGGGCAGCUCAGUACAGGAU
- cell count fold change with erlotinib: 0.97

Sequence: CGGGUCGGAGUUAGCUCAAGCGG
- cell count fold change with erlotinib: -0.802

Sequence: CGUGUAUUUGACAAGCUGAGUU
- cell count fold change with erlotinib: -5.21

Sequence: CUACAAAGGGAAGCACUUUCUC
- cell count fold change with erlotinib: -2.75

Sequence: CUAGUGAGGGACAGAACCAGGAUUC
- cell count fold change with erlotinib: -2.96

Sequence: CUCAGUAGCCAGUGUAGAUCCU
- cell count fold change with erlotinib: -4.13

Sequence: CUCCAGAGGGAAGUACUUUCU
- cell count fold change with erlotinib: -1.13

Sequence: CUCUAGAGGGAAGCACUUUCUC
- cell count fold change with erlotinib: -0.525

Sequence: CUCUAGAGGGAAGCGCUUUCUG
- cell count fold change with erlotinib: -1.78

Sequence: CUCUCACCACUGCCCUCCCACAG
- cell count fold change with erlotinib: -1.11

Sequence: CUCUUGAGGGAAGCACUUUCUGU
- cell count fold change with erlotinib: -1.33

Sequence: CUGAAGUGAUGUGUAACUGAUCAG
- cell count fold change with erlotinib: -3.44

Sequence: CUGCAAAGGGAAGCCCUUUC
- cell count fold change with erlotinib: -3.43

Sequence: CUGGAGAUAUGGAAGAGCUGUGU
- cell count fold change with erlotinib: -0.316

Sequence: CUGGUUUCACAUGGUGGCUUAG
- cell count fold change with erlotinib: -2.28

Sequence: CUUAUGCAAGAUUCCCUUCUAC
- cell count fold change with erlotinib: -1.68

Sequence: GAAAGCGCUUCCCUUUGCUGGA
- cell count fold change with erlotinib: -0.859

Sequence: GAAAGCGCUUCUCUUUAGAGG
- cell count fold change with erlotinib: -0.525

Sequence: GAAAGUGCUUCCUUUUAGAGGC
- cell count fold change with erlotinib: -0.077

Sequence: GAAGGCGCUUCCCUUUAGAGCG
- cell count fold change with erlotinib: -2.22

Sequence: GAAGUGCUUCGAUUUUGGGGUGU
- cell count fold change with erlotinib: -0.122

Sequence: GAGUGCCUUCUUUUGGAGCGUU
- cell count fold change with erlotinib: -4.05

Sequence: GAUGAGCUCAUUGUAAUAUGAG
- cell count fold change with erlotinib: -2.97

Sequence: GAUUAGGGUGCUUAGCUGUUAA
- cell count fold change with erlotinib: -2.53

Sequence: GAUUGCUCUGCGUGCGGAAUCGAC
- cell count fold change with erlotinib: -1.68

Sequence: GCAUGGGUGGUUCAGUGG
- cell count fold change with erlotinib: 0.259

Sequence: GGGCGACAAAGCAAGACUCUUUCUU
- cell count fold change with erlotinib: -2.38

Sequence: GGGGAGCUGUGGAAGCAGUA
- cell count fold change with erlotinib: -2.06

Sequence: GGUGCAGUGCUGCAUCUCUGGU
- cell count fold change with erlotinib: -1.52

Sequence: GGUUUGGUCCUAGCCUUUCUA
- cell count fold change with erlotinib: 0.113

Sequence: GUAGAUUCUCCUUCUAUGAGUA
- cell count fold change with erlotinib: -1.33

Sequence: GUGAAUUACCGAAGGGCCAUAA
- cell count fold change with erlotinib: -2.07

Sequence: GUGAGGACUCGGGAGGUGG
- cell count fold change with erlotinib: -3.05

Sequence: GUGAGGGCAUGCAGGCCUGGAUGGGG
- cell count fold change with erlotinib: -0.605

Sequence: GUGAGUCUCUAAGAAAAGAGGA
- cell count fold change with erlotinib: -1.43

Sequence: GUGCAUUGCUGUUGCAUUGC
- cell count fold change with erlotinib: -2.3

Sequence: GUGGCUGCACUCACUUCCUUC
- cell count fold change with erlotinib: -0.272

Sequence: GUGGGUACGGCCCAGUGGGGGG
- cell count fold change with erlotinib: 0.186

Sequence: GUGUGCGGAAAUGCUUCUGCUA
- cell count fold change with erlotinib: -2.43

Sequence: GUUGGAGGAUGAAAGUACGGAGUGAU
- cell count fold change with erlotinib: -2.24

Sequence: UAAAGAGCCCUGUGGAGACA
- cell count fold change with erlotinib: -1.03

Sequence: UAACUGGUUGAACAACUGAACC
- cell count fold change with erlotinib: -0.919

Sequence: UAAGGCACGCGGUGAAUGCC
- cell count fold change with erlotinib: 0.453

Sequence: UAAGGUGCAUCUAGUGCAGAUAG
- cell count fold change with erlotinib: -4.51

Sequence: UAAGGUGCAUCUAGUGCAGUUAG
- cell count fold change with erlotinib: -4.47

Sequence: UAAGUGCUUCCAUGCUU
- cell count fold change with erlotinib: -0.506

Sequence: UAAGUGCUUCCAUGUUUCAGUGG
- cell count fold change with erlotinib: -0.141

Sequence: UAAGUGCUUCCAUGUUUGAGUGU
- cell count fold change with erlotinib: -0.491

Sequence: UAAGUGCUUCCAUGUUUUGGUGA
- cell count fold change with erlotinib: -1.35

Sequence: UACCCAGAGCAUGCAGUGUGAA
- cell count fold change with erlotinib: -2.53

Sequence: UACGUCAUCGUUGUCAUCGUCA
- cell count fold change with erlotinib: -0.419

Sequence: UACUCAGGAGAGUGGCAAUCAC
- cell count fold change with erlotinib: -0.848

Sequence: UACUUGGAAAGGCAUCAGUUG
- cell count fold change with erlotinib: -0.495

Sequence: UAGAGUUACACCCUGGGAGUUA
- cell count fold change with erlotinib: -3.48
